# According to article PMC4414571, “Peptides of Presenilin-1 Bind the Amyloid Precursor Protein Ectodomain and Offer a Novel and Specific Therapeutic Approach to Reduce ß-Amyloid in Alzheimer’s Disease” (PLoS ONE, 2015):
# “Also recorded” adds a separate entry of the source. Like-named read-outs stand apart in the source and are kept apart here. Ends that are not written are not given here.
# How the values were obtained:
# [1] = test system: NICD / γ-secretase in Jurkat cells; experiment: NICD levels in extracts of Jurkat cells by ELISA (γ-secretase activity); conditions: 24 h, percent control
# Experimental: Jurkat cells (Sigma) were cultured in RPMI 1640 medium supplemented with 10% FCS, 2 mM L-glutamine, penicillin and streptomycin at 37°C in the presence of 5% CO2. […] After harvesting the cells, extracts were prepared by sonication in lysis buffer (Cell Signaling Technologies) supplemented with 1mM PMSF and complete protease inhibitor cocktail (Roche). The solubilized extracts were then used in ELISA assays to determine NICD levels, as a measure of γ-secretase activity, using the PathScan Cleaved Notch 1 (Val 1744) sandwich ELISA kit (Cell Signaling Technologies) according to the manufactuer’s protocols.
# [2] = target: T1, soluble ectodomain of APP (APPs, APP 695) (Homo sapiens, UniProt P05067); experiment: Biolayer interferometry, biotinylated peptides on streptavidin biosensors vs purified soluble APP (APPs); format: binding; conditions: 30°C, biotinylated peptide on SA biosensors; for koff / kon / Kd: 1:1 model; for Kd: k off/k on, Kinetics Buffer (1X PBS, 0.002% Tween-20, 0.01% BSA)
# T1 construct: host or cells: Sf9 insect cells (baculovirus), conditioned medium
# Experimental: Sf9 cells (ATCC CRL 1711) were grown in TMN-FH complete medium (Pharmingen) in suspension and infected at a multiplicity of infection of 2 with a titred stock of recombinant virus expressing human APP695. Conditioned media and/or cells were harvested 6 days after infection. Cells and debris were removed by centrifugation (at 1000 x g for 15 min).
# Recombinant baculoviruses were produced according to published protocols. A fragment containing full-length APP 695 was subcloned into the baculovirus transfer vector pBlueBac3 (Invitrogen). The resulting recombinant vector was co-transfected with baculovirus DNA into sf9 cells. Recombinant APP expression was verified by Western blot hybridization using mouse MAb against human APP (Cat # MAB348, Millipore).
# APPs was purified from baculovirus conditioned medium to >95% purity, as assessed by densitometry analysis of Coomassie stained SDS PAGE gels, by Arvys Proteins, Stamford, CT, using the following strategy. The conditioned medium proteins were purified by heparin-affinity chromatography, followed by two gel filtration chromatography steps over HiPrep Sephacryl S300 columns and two steps of anion exchange chromatography on HiTrapQ columns.
# The binding affinities of peptides P1, scrambled P1, P4, P5, P7 and P8 for the soluble ectodomain of APP or control IgG were measured by biolayer interferometry on an Octet RED96 System (Pall FortéBio Corp., Menlo Park, CA). This system monitors interference of light reflected from two sources (an internal reflection surface and the liquid/solid interface of a fiber optic sensor) to measure the rate of binding of molecules to the biosensor surface.
# Peptides were synthesized and biotinylated at the NH2-terminus by Dr. Michael Freydkin at Biopeptides, Inc., San Diego, CA, and purified to >95% by HPLC. Biotinylated peptides were loaded onto Streptavidin (SA) biosensors (Pall FortéBio Corp.) at empirically determined concentrations. All affinity measurements were carried out in Kinetics Buffer (KB) (1X PBS, 0.002% Tween-20, and 0.01% BSA) at 30°C. Typically, the biosensors were pre-equilibrated in KB for 120s, loaded with a biotinylated peptide at optimal concentrations and times, quenched with 10 μg/ml biocytin in KB for 180s, brought to baseline in KB for 120s and transferred to wells containing purified APPs (0–200 nM). Multiple negative controls were run for each peptide including association buffer only (no APP) or with IgG replacing APP. Binding kinetics were calculated using the FortéBio Data Analysis v7.1 software. The association (k on) and dissociation (k off) rate constants were obtained by fitting the association and dissociation data to a 1:1 model. Binding affinity, KD, was calculated as k off/k on.
# [3] = test system: Aβ production in cell cultures; conditions: cells cultured in media containing excess of the FLAG-coupled NH2-terminal domain of PS-1 (residues 1–80), ref [13], cited from earlier work
# Excerpt: In that work we had selected the NH2-t ... || Peptide P1, comprising the first 80 amino acids of PS-1, scrambled P1 and the two large oligopeptides corresponding to the two halves of the human P1 (peptides P2 and P3, Table 1), were first synthesized and tested in vitro for their effect on the production of Aβ40 and 42.
# [4] = test system: IMR-32 human neuroblastoma cell-line (endogenous Aβ40 or 42 production); experiment: Endogenous Aβ40 and 42 production in IMR-32 culture medium by ELISA; format: cell-based; conditions: for Effect on Aβ40 and 42 production in vitro (in words): 0–5 μM peptide, 24 h, IMR-32 culture medium, ELISA; for Production of total Aβ and of Aβ 40 and 42 (summary in words): Discussion summary, stated as in vitro and in vivo (mThy1-hAPP Tg mice)
# Experimental: A human neuroblastoma cell-line, IMR-32 (ATCC CCL-127) was cultured in MEM Earles medium containing 10% fetal bovine serum, 2 mM L-glutamine in the presence of penicillin and streptomycin. Equal numbers of cells (0.3 x 10^6 per well) were plated on 6-well plates overnight. Peptides (0–5 μM) were added to fresh culture medium (500 μl per well) and left in the incubator for 24 hours, after which the culture medium from each well was removed and stored at -80°C in the presence of 4-(2-Aminoethyl) benzenesulfonyl fluoride hydrochloride (AEBSF) and protease inhibitors. Prior to use, the culture medium was centrifuged in an eppendorf microfuge for 5 min at 4°C, the supernatant diluted with an equal volume of sample diluent buffer (Wako) and analyzed for the presence of Aβ40 or 42 using a commercial ELISA kit (Wako).
# [5] = test system: Aβ deposits in mThy1-hAPP transgenic mice; experiment: Plaque load / Aβ immunolabeling in brain sections of mThy1-hAPP Tg mice after intraventricular peptide infusion; format: in vivo, mouse; conditions: 10 μM in PBS, two weeks infusion then two weeks rest, vs PBS controls
# Experimental: These mice express mutated (London V717I and Swedish K670M/N671L) hAPP751 under the control of the neuronal murine (m)Thy-1 promoter. […] The Tg lines were maintained by crossing heterozygous Tg mice with non-Tg wild type C57BL/6 x DBA/2 F1 breeders. All animal studies were carried out according to protocols approved by the Institutional Animal Care and Use Committee of the University of California San Diego. […]
# For analysis of Aβ deposits, blind-coded 40 μm vibratome sections were immunolabeled as previously described with mouse monoclonal antibodies (MAb) against human Aβ (clone 82E1, prepared against Aβ 1–16) followed by incubation with fluorescein isothiocyanate (FITC)-conjugated anti-mouse IgG (Vector Laboratories). Sections were imaged with a laser scanning confocal microscope (MRC1024, BioRad) as described and digital images were analyzed with the NIH Image 1.43 program to determine the percent area occupied by Aβ deposits. Three immunolabeled sections were analyzed per mouse and the average of individual measurements was used to calculate group means. […]
# [6] = test system: Aβ 1–40 and 1–42 in mThy1-hAPP mouse brains; experiment: Aβ40- and Aβ42-specific ELISA of neocortex extracts of peptide-treated mThy1-hAPP mice; format: in vivo; conditions: vs PBS, 10 μM peptide infusion, two weeks then two weeks rest
# Experimental: These mice express mutated (London V717I and Swedish K670M/N671L) hAPP751 under the control of the neuronal murine (m)Thy-1 promoter. […] The Tg lines were maintained by crossing heterozygous Tg mice with non-Tg wild type C57BL/6 x DBA/2 F1 breeders. All animal studies were carried out according to protocols approved by the Institutional Animal Care and Use Committee of the University of California San Diego.
# Age-matched male and female mThy1-hAPP Tg mice at 6 months of age were anesthetized and under sterile conditions, a 26 gauge stainless steel cannula (Alzet Brain Infusion kit 3, Durect Corp) was stereotaxically implanted into the right ventricle using the following coordinates: –1 mm using Bregma as a reference, lateral, 1.0 mm, depth, -3.0 mm, and secured to the cranium using superglue. The cannula was connected via a 5 mm coil of V3 Biolab vinyl tubing to a model 1002 osmotic minipump (Alzet, Durect Corp) surgically placed subcutaneously beneath the shoulder blades and surgically closed. The solutions (each peptide at 10 μM in PBS) were delivered directly into lateral ventricles at a flow rate of 0.25 μl per hour (100 μl total volume) for two weeks. […]
# Samples from mouse cortex and hippocampus were homogenized in ice-cold, 6 M guanidine-HCl according to published protocols. Quantification of Aβ 1–40 and 1–42 was carried out by ELISA kits (Invitrogen). […]
# [7] = test system: NICD (γ-secretase activity); experiment: NICD levels in neocortex of treated mThy1-hAPP mice by Western blot (γ-secretase activity); format: in vivo, mouse; conditions: peptide-infused mThy1-hAPP mice vs PBS, n = 5, two weeks after end of treatment
# Experimental: Extracts of neocortex of mThy1-hAPP mice treated with P4, P8 or PBS only were electrophoresed on SDS gels and Western blotted with primary rabbit antibodies against NICD (Cat# 07–1232, Millipore) at 4°C overnight, followed by horse-radish peroxidase (HRP)-conjugated goat anti-rabbit IgG (Bio-Rad). The immunoreactive bands were detected by chemiluminescence (Thermo Scientific).
# An optimal therapeutic approach to AD would avoid producing serious effects on other biochemically and physiologically important processes, as would occur if the cleavages of any of the other substrates of β- or γ-secretase were affected in the process of reducing the levels of Aβ. An especially well-studied example is the γ-secretase activity of PS-1 that is critically involved in the final enzymatic cleavage of Aβ from APP; it also functions in an essential developmental process that generates NICD from Notch. […] At the same time we analyzed the same tissue samples for their β-secretase (BACE-1) activity and APP expression. Extracts were prepared of the neocortex of Tg mice that had been treated with P4, P8 or PBS, and the levels of NICD were determined by Western blot analysis with a primary rabbit Ab against NICD. […]
# T1 sequence (P05067 18-612 isoform P05067-4 limits assumed): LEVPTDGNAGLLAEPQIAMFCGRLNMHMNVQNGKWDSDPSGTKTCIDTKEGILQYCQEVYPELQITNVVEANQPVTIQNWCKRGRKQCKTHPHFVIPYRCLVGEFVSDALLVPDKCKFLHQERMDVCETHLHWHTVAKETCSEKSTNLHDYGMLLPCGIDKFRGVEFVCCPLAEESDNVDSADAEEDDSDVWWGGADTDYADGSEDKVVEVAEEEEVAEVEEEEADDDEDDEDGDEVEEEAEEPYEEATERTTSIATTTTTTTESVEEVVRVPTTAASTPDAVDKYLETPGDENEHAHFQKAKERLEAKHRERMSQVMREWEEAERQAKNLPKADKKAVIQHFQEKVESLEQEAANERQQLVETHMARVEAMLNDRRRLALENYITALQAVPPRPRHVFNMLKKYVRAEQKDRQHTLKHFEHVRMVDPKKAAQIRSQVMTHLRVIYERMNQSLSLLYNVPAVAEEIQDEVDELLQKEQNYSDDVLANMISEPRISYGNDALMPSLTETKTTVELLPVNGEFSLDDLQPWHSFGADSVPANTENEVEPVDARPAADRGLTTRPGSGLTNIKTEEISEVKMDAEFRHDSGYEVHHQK
compound,measurement,setting,value
"CC(C)[C@H](O)C(=O)N[C@@H](C)C(=O)N[C@@H]1C(=O)N(C)CCc2ccccc21 [Semagacestat, reference compound]","NICD levels in Jurkat cells, γ-secretase inhibitor (in words)","[1]; 0–100 nM, n = 2",inhibited in a dose-dependent manner
DEEEDEELTLKYGAK [Peptide P7],koff,[2]; Kinetics Buffer,0.00105 s⁻¹
same,kon,[2]; Kinetics Buffer,104000 M⁻¹ s⁻¹
same,Kd,[2],10.1 nM
FLAG-PS-1 (residues1-80): bacterially produced FLAG-PS-1 (residues1-80),Aβ production (in words),[3],robust inhibition of Aβ
same,Aβ production (in words),[3]; listed as NH2-terminal domain of PS-1 (residues 1–80) coupled to the FLAG protein,markedly inhibited
"PEPLSNGRP [Peptide P10, residues 47–55 of PS-1, fragment of P4]",Effect on Aβ40 and 42 production in vitro (in words),[4],did not give a significant reduction in Aβ in vitro; also recorded: had not shown a reduction of Aβ in vitro
same,Aβ immunolabeling / Aβ load in mouse brain (in words),[5],less effective but still produced statistically significant reductions in Aβ levels compared to PBS controls in the neocortex
same,Aβ40/42 in neocortex extracts by ELISA (in words),[6],"gave reductions in Aβ load, but to a lesser extent"
"RQVVEQDEEEDEELT [Peptide P6, residues 60–74 of PS-1]",Effect on Aβ40 and 42 production in vitro (in words),[4],substantial dose-dependent reduction in Aβ40 and 42
same,Production of total Aβ and of Aβ 40 and 42 (summary in words),[4],markedly reducing the production of total Aβ and of Aβ 40 and 42 in vitro and in vivo
"RRSLGH [Peptide P9, residues 41–46 of PS-1, fragment of P4]",Effect on Aβ40 and 42 production in vitro (in words),[4],did not give a significant reduction in Aβ in vitro; also recorded: had not shown a reduction of Aβ in vitro
same,Aβ immunolabeling / Aβ load in mouse brain (in words),[5],less effective but still produced statistically significant reductions in Aβ levels compared to PBS controls in the neocortex
same,Aβ40/42 in neocortex extracts by ELISA (in words),[6],"gave reductions in Aβ load, but to a lesser extent"
RRSLGHPEPLSNGRP [Peptide P4],koff,[2]; Kinetics Buffer,0.00134 s⁻¹
same,kon,[2]; Kinetics Buffer,83600 M⁻¹ s⁻¹
same,Kd,[2],16.1 nM
same,NICD levels in neocortex (in words),[7],not accompanied by any significant changes in the levels of NICD
same,"NICD levels in Jurkat cells, peptides (in words)","[1]; 0–10 μM, 450 nm, n = 2–3",no appreciable change in the levels of NICD
"SNGRPQGNSRQVVEQ [Peptide P5, residues 51–65 of PS-1]",Effect on Aβ40 and 42 production in vitro (in words),[4],no significant effect on Aβ production
same,Production of total Aβ and of Aβ 40 and 42 (summary in words),[4],did not reduce Aβ
same,Binding to purified APPs (in words),[2]; Kinetics Buffer,no significant binding to APP
